According to US11052091B2, “BRK inhibitory compound” (ONO PHARMACEUTICAL CO., LTD., priority 2016, dated 2021):

Legend:
Brk enzyme = Brk enzyme (Homo sapiens (Human), UniProt Q13882); test: Measurement of Brk inhibitory activity (LanthaScreen TR-FRET); conditions: read-out: Brk inhibitory activity (IC50)
Method: Measurement of an inhibitory activity on Brk enzyme was performed by using LanthaScreen (registered trademark) system (Invitrogen) in accordance with the attached manual. Reagents used are described below.
Reaction Buffer: A solution containing 50 mmol/L HEPES (pH 7.5), 0.01% Brij 35, 10 mmol/L MgCl2 and 1 mmol/L EGTA was prepared by using purified water.
A solution of a test substance (the compound of the present invention): A solution of each concentration of a test compound in DMSO was diluted 20-fold with Reaction Buffer, and a solution containing a test compound at a concentration 5 times a final concentration was prepared. An enzyme solution: A solution containing 480 ng/mL of Brk enzyme was prepared by using Reaction Buffer. […] A detection solution: A solution containing 20 mmol/L of EDTA and 4 nmol/L of PY20 (Invitrogen) was prepared by using Dilution B (Invitrogen).
To a 96-well plate (Nunc), a solution of 10 mmol/L of a test compound in DMSO was dispensed, and further, a dilution series at a common ratio of three was prepared by using DMSO. […] The phosphorylation of the artificial substrate was quantified by Time-Resolved Fluorescence Resonance Energy Transfer (TR-FRET). […]

p38α = p38α (Homo sapiens (Human), UniProt Q16539); test: Enzyme inhibitory activity on kinases other than Brk (selectivity), p38α; format: biochemical; conditions: compound concentration of 1 μmol/L; read-out: inhibition rates (%) p38α
Method: The compound of the present invention was dissolved in DMSO to prepare a solution with a concentration of 100 times the test concentration of 1 μmol/L. The solution was further diluted 25-fold with Assay Buffer (20 mmol/L HEPES, 0.01% Triton X-100, 2 mmol/L DTT, pH 7.5) to give a test substance solution. With regard to a positive control substance, a solution of the positive control substance was prepared in a similar manner.
Five microliters of a test substance solution with a concentration of four times prepared by using Assay Buffer, 5 μL of a solution of a substrate/ATP/a metal (Mg) with a concentration of four times and 10 μL of a solution of kinase with a concentration of two times were mixed in a well of a 384-well plate made of polypropylene, and the mixture was subjected to a reaction at room temperature for 1 hour. To the mixture, 60 μL of Termination Buffer (QuickScout Screening Assist MSA; Cama Biosciences, Inc.) was added to stop the reaction. The substrate peptide and the phosphorylated peptide in the reaction solution were separated, and were quantified. The kinase reaction was evaluated by a product ratio (P/(P+S)) calculated from a peak height (S) of the substrate peptide and a peak height (P) of the phosphorylated peptide. As other kinases, kinase selectivity experiments were performed using, for example, the p38α and Syk kinases. […]

Chain of Brk enzyme (Q13882 whole entry): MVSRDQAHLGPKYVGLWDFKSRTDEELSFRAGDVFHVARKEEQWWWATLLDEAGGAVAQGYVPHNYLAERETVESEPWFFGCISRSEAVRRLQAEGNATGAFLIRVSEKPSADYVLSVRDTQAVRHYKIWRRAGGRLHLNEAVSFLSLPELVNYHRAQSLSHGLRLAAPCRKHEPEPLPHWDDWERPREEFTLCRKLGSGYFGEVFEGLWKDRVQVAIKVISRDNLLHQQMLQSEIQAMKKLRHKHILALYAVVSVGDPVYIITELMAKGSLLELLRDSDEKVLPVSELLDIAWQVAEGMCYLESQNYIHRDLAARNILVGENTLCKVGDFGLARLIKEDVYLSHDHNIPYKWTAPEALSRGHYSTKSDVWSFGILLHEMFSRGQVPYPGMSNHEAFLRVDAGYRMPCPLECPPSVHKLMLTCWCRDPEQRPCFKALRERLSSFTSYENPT
Chain of p38α (Q16539 whole entry): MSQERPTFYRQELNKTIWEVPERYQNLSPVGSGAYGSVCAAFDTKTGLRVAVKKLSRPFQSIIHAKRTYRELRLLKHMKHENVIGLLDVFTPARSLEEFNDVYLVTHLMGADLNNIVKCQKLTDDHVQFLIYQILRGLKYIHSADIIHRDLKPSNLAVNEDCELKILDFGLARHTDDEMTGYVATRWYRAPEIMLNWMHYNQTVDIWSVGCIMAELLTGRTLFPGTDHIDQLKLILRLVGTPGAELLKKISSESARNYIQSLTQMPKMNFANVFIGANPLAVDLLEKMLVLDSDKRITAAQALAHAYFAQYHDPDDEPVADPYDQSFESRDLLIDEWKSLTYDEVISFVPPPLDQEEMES

| Compound | IC50 (Brk enzyme) [nM] | inhibition at 1 µM (p38α) [%] |
| --- | --- | --- |
| 6-amino-2-{[2-difluoro-4-(methylsulfonyl)phenyl]amino}-7-(7-fluoro-1H-indazol-4-yl)-9-isopropyl-7,9-dihydro-8H-purin-8-one [Example 5-11] | 22 |  |
| CC(C)n1c(=O)n(-c2ccc(F)c3[nH]ncc23)c2c(N)nc(Nc3ccc(S(C)(=O)=O)cc3F)nc21 [Example 3, 6-amino-7-(7-fluoro-1H-indazol-4-yl)-2-{[2-fluoro-4-(methylsulfonyl)phenyl]amino}-9-isopropyl-7,9-dihydro-8H-purin-8-one] |  | ≤ 24 |
